In patent publication US8304371B2, “Insecticidal arylpyrrolines” (Bayer Cropscience AG, priority 2008, dated 2012):
Read-outs that look alike come from different tables or passages of the source.

What was measured:
Format in all cases: in vivo
[1] = test system: Tobacco Cutworm (Spodoptera litura) Larvae; assay: Test against tobacco cutworm (Spodoptera litura) larvae, leaf dip; details: active compound concentration 100 ppm; third-instar larvae; after 7 days
Protocol: (§1) Unless nomentioned otherwise, the test solutions were prepared as follows:
(§2) Containing as solvent: Dimethylformamide, 3 parts by weight; and as emulsifier: Polyoxyethylene alkyl phenyl ether, 1 part by weight
(§3) To prepare the test solution, 1 part by weight of an active compound is mixed with the above-mentioned amount of solvent containing the above-mentioned amount of emulsifier, and the mixture is diluted with water to the desired concentration.
The leaves of sweet potato were immersed in the test solution at the appropriate concentration, and the leaves were dried in air. The leaves were then placed in a petri dish having a diameter of 9 cm, and ten third-instar larvae of tobacco cutworm were released therein. The petri dish was placed in a temperature chamber at 25° C. After 2 days and 4 days sweet potato leaves were additionally added. After 7 days, the number of dead larvae was counted, to calculate the insecticidal activity. An insecticidal activity of 100% means that all larvae were killed, whereas an insecticidal activity of 0% means that no larva was killed. In the current test, the results of two petri dishes for each partition were averaged.

[2] = test system: Two-Spotted Spider Mite (Tetranvchus urticae); assay: Test against two-spotted spider mite, spray on kidney bean; details: active compound concentration 100 ppm; adult mites; after 7 days
Protocol: as §1, §2, §3
50 to 100 adult two-spotted spider mites were inoculated onto the leaves of kidney beans at the two-true leaf stage, which plant had been cultivated in a pot having a diameter of 6 cm. After one day, test solution at the appropriate concentration was sprayed thereon in a sufficient amount using a spray gun. After the spraying, the plant pot was placed inside a greenhouse, and after 7 days, the acaricidal activity was calculated. An acaricidal activity of 100% means that all mites were killed, whereas an acaricidal activity of 0% means that no mite was killed.

[3] = test system: Cucurbit Leaf Beetle (Aulacophora femoralis); assay: Test against cucurbit leaf beetle, cucumber leaf dip; details: active compound concentration 100 ppm; second-instar larvae; after 7 days
Protocol: as §1, §2, §3
Cucumber leaves were immersed in the test solution at the appropriate concentration, and the leaves were dried in air. The leaves were then placed in a plastic cup containing aseptically sterilized black soil, and five second-instar larvae of cucurbit leaf beetle were released therein. After 7 days, the number of dead larvae was counted, and thus the insecticidal activity was calculated. An insecticidal activity of 100% means that all beetles were killed, whereas an insecticidal activity of 0% means that no beetle was killed.

[4] = test system: Strain of Green Peach Aphid (Mvzus persicas) which is Resistant to Organic Phosphorus and Carbamate Agents; assay: Test against resistant green peach aphid, spray on egg plant; details: active compound concentration 500 ppm; after 7 days
Protocol: as §1, §2, §3
About 30 to 50 of the resistant green peach aphids were inoculated per seedling, onto the leaves of egg plant at the two-true leaf stage, which plant had been cultivated in a pot having a diameter of 6 cm. One day after the inoculation, the test solution at the appropriate concentration was sprayed thereon in a sufficient amount using a spray gun. After the spraying, the plant pot was placed in a greenhouse at 28° C., and after 7 days, the insecticidal activity was calculated. An insecticidal activity of 100% means that all aphids were killed, whereas an insecticidal activity of […] means that no aphid was killed. The test was repeated two times.

[5] = test system: Cat Fleas (Ctenocephalides fells); assay: Test against cat fleas, blood feeding; details: for mortality at 100 ppm: Ctenocephalides, 48 h, read-out: mortality rate
Protocol: (§4) Solvent: Dimethylsulfoxide
About 10 to 15 adult cat fleas are provided in a container exclusive for fleas. An exclusive container containing the test solution is covered with Parafilm, reversed upside down, and then mounted on top of the flea container, so that the cat fleas can suck the blood in the container. The test solution is maintained at 37° C., and the flea container is maintained at room temperature. After 2 days the mortality rate of the cat fleas is measured. 100% means that all of the cat fleas have been killed, while 0% means that all are alive.

[6] = test system: Housefly (Musca domestica); assay: Test against housefly; details: for mortality at 100 ppm: Musca domestica, 48 h, read-out: mortality rate
Protocol: as §4
(§5) In order to make a suitable test solution, 10 mg of an active compound is dissolved in 0.5 ml of the solvent, and the mixture is diluted with water to a predetermined concentration.
In a preliminary stage of the test, a piece of sponge having a certain size is soaked with a mixture of sugar and the test solution is placed in a test container. Ten adult houseflies are introduced to the container, and the container is covered with a perforated lid.
After 2 days, the mortality rate of the houseflies is measured. At that time, 100% means that all of the houseflies have been killed, and 0% means that all are alive.

[7] = test system: Nymphs of the tick Amblyomma hebraeum; assay: Amblyomma hebraeum test, nymph immersion; details: 48 h, read-out: activity (mortality in %)
Protocol: as §4
To produce a suitable preparation of active compound. 1 part by weight of active compound is mixed with the stated amount of solvent, and the concentrate is diluted with containing solvent to the desired concentration.
Nymphs of the tick Amblyomma hebraeum are placed in perforated plastic beakers and immersed in aqueous compound solution for one minute. Ticks are transferred to a filter paper in a Petri dish and incubated in a climate chamber for 42 days.
After 2 days mortality in % is determined. 100% means that all the ticks have been killed; 0% means that none of the ticks have been killed.

[8] = test system: adult engorged female Boophilus microplus ticks; assay: Boophilus microplus test, immersion of engorged females; details: Rhipicephalus microplus, 168 h, read-out: activity (mortality in %)
Protocol: Solvent: Dimethylsulfoxid
To produce a suitable preparation of active compound, 10 mg of active compound are dissolved in 0.5 ml solvent, and the concentrate is diluted with water to the desired concentration.
Eight to ten adult engorged female Boophilus microplus ticks are placed in perforated plastic beakers and immersed in aqueous compound solution for one minute. Ticks are transferred to a filter paper in a plastic tray. Egg deposition of fertile eggs is monitored after.
After 7 days mortality in % is determined. 100% means that all the ticks have been killed; 0% means that none of the ticks have been killed.

[9] = test system: Sheep Blowfly (Lucillia cuprina); assay: Test against sheep blowfly; details: active compound concentration 100 ppm; after 2 days
Protocol: as §4, §5
Minced horse meat having a size of 1 square centimeter, and 0.5 ml of the test solution are placed in a test tube, and about 20 to 30 adult sheep blowflies are introduced therein.
After 2 days the mortality rate of the sheep blowflies is measured. 100% means that all of the sheep blowflies have been killed, and 0% means that all are alive.

[10] = test system: Cattle Tick (Boophilus microplus); assay: Test against cattle tick, injection; details: 20 μg/animal injected; after 7 days; 100% means that all eggs are infertile
Protocol: as §4
In order to make a suitable test solution, 10 mg of an active compound is dissolved in 0.5 ml of the above mentioned solvent, and the mixture is diluted with water to a predetermined concentration.
The test solution is injected into the abdomens of five fully-fed female adult cattle ticks. The cattle ticks are transferred to a replica plate, and are bred in a breeding vessel for a certain time period. Egg deposition of fertile eggs is monitored.
After 7 days the mortality rate of the cattle ticks is measured. 100% means that all eggs are infertile; and 0% means that all eggs are fertile.

[11] = active compound concentration 100 ppm in blood, adult fleas, after 2 days
[12] = application rate 100 ppm, immersed one minute, after 2 days
[13] = application rate 100 ppm, immersed one minute, after 7 days

Row | Structure (SMILES) | insecticidal activity [1] | acaricidal activity [2] | insecticidal activity [3] | insecticidal activity [4] | mortality at 100 ppm [5, 11] | mortality at 100 ppm [6] | mortality at 100 ppm [7, 12] | mortality at 100 ppm [8, 13] | mortality at 100 ppm [5] | mortality at 100 ppm [7] | mortality at 100 ppm [8] | mortality rate [9] | mortality rate [5, 11] | mortality rate [10] | mortality rate ([6]; active compound concentration 100 ppm, adult houseflies, after 2 days)
1 | N#Cc1cc(C2=NCC(c3cc(Cl)c(Cl)c(Cl)c3)(C(F)(F)F)C2)ccc1-n1cncn1 (stereo not shown) [1-78, 2-(1H-1,2,4-triazol-1-yl)-5-[3-(3,4,5-trichlorophenyl)-3-(trifluoromethyl)-3,4-dihydro-2H-pyrrol-5-yl]-benzonitrile] | 100% | 100% | 100% | 100% | ≥ 80% | ≥ 80% | ≥ 80% | ≥ 80% | – | – | – | – | – | – | –
2 | CC(=O)NCc1ccc(C2=NCC(c3cc(Cl)cc(Cl)c3)(C(F)(F)F)C2)cc1Br (stereo not shown) [2-13, N-{2-bromo-4-[3-(3,5-dichlorophenyl)-3-(trifluoromethyl)-3,4-dihydro-2H-pyrrol-5-yl]benzyl}acetamide] | 100% | – | – | – | ≥ 80% | ≥ 80% | – | ≥ 80% | – | – | – | – | – | – | –
3 | CS/C(=N\C[Si](C)(C)C)c1ccc(COC(C)=O)c2ccccc12 [15-2, {4-[(Z)-(methylsulfanyl){[(trimethylsilyl)methyl]imino}methyl]naphthalen-1-yl}methyl acetate] | – | – | – | – | – | ≥ 80% | – | – | ≥ 80% | ≥ 80% | ≥ 80% | – | – | – | –
4 | N#Cc1cc(C2=NCC(c3cc(Cl)cc(Cl)c3)(C(F)(F)F)C2)ccc1-n1cncn1 (stereo not shown) [Compound No. 1-39, 5-[3-(3,5-dichlorophenyl)-3-(trifluoromethyl)-3,4-dihydro-2H-pyrrol-5-yl]-2-(1H-1,2,4-triazol-1-yl)benzonitrile] | 100% | 98% | 100% | 98% | 100% | 100% | ≥ 80% | ≥ 80% | – | – | – | 100% | – | – | –
5 | O=C(NCc1ccc(C2=NCC(c3cc(Cl)c(Cl)c(Cl)c3)(C(F)(F)F)C2)cc1C(F)(F)F)C1CC1 (stereo not shown) [2-163] | 100% | 100% | 100% | 100% | – | – | – | – | – | – | – | – | – | – | –
6 | O=C(NCc1ccc(C2=NCC(c3cc(C(F)(F)F)cc(C(F)(F)F)c3)(C(F)(F)F)C2)cc1C(F)(F)F)C1CC1 (stereo not shown) [2-167] | 100% | 100% | 100% | 100% | – | – | – | – | – | – | – | – | – | – | –
7 | O=C(CC(F)(F)F)NCc1ccc(C2=NCC(c3cc(Cl)c(Cl)c(C(F)(F)F)c3)(C(F)(F)F)C2)cc1Br (stereo not shown) [2-173] | 100% | 100% | 100% | 100% | – | – | – | – | – | – | – | – | – | – | –
8 | CC(=O)NCc1ccc(C2=NCC(c3cc(Cl)c(Cl)c(Cl)c3)(C(F)(F)F)C2)c2ccccc12 (stereo not shown) [11-5] | 100% | 100% | 100% | 100% | – | – | – | – | – | – | – | – | – | – | –
9 | FC(F)(F)C1(c2cc(Cl)cc(Cl)c2)CN=C(c2ccc(-n3cncn3)c(Br)c2)C1 (stereo not shown) [1-21] | 100% | 100% | 100% | 100% | – | – | – | – | – | – | – | 100% | at least 90% | 100% | 100%
